Source: patent US9682926B2, “Cancer chemotherapeutic agent/formulation, manufacture and use thereof” (Bose Institute, priority 2012, dated 2017)
Several values for one entry are separate records, joined by “and”; a condition that tells them apart may be missing. Equal values may be shown once. Read-outs that look alike come from different tables or passages of the source.

Experiments:
[1] = system: S-180 tumor cells
Excerpt: (§1) For the determination of cell cycle phase distribution of nuclear DNA, cells from bone marrow and tumor tissue (1×10^6 cells) were harvested from tumor bearing untreated and treated mice.

[2] = system: bone marrow cells
Excerpt: as §1

[3] = Protocol: (§2) The homogenate was then centrifuged at 10,000 g at 4° C. for 20 mins.
The amount of malondialdehyde was measured by reaction with thiobarbituric acid at 532 nm using spectrophotometer. MDA levels were calculated using the standard curve of malondialdehyde and its level expressed in nM/mg of protein.

[4] = system: SOD, CAT and GST
Protocol: as §2
Briefly, assay mixture consists of 3 mL of H2O2 phosphate buffer and 0.05 mL of the supernatant of the tissue homogenate. The change in absorbance was recorded for 2 min at 30 s interval at 240 nm using spectrophotometer.
One unit of enzyme activity is defined as the amount of enzyme necessary for inhibiting the reaction by 50%. Auto oxidation of Pyrogallol in Tris-HCL buffer (50 mM, pH 7.5) is measured by increase in absorbance at 420 nm.

[5] = system: bone marrow cells; assay type: in vivo, Swiss albino mice; details: S-180 tumor bearers
Excerpt: (§3) The cells were resuspended in RPMI-1640.

[6] = system: bone marrow cells; assay type: in vivo; details: EAC tumor bearing mice
Excerpt: as §3

[7] = system: human PBMC; assay: Cytotoxicity (cell viability) of M2 against human PBMC; assay type: cell-based; details: for Total Cell Count (% survival): mean ± SD of five experiments
Protocol: Peripheral blood mononuclear cells (PBMC) were isolated from normal human blood and were maintained in RPMI supplemented with 10% FBS, 100 μg/ml streptomycin and 50 units/ml penicillin, at 37° C. in a humidified incubator containing 5% CO2. […] The doses that were tested ranged between 0.5433×10^−7 μM to 35 μM.

[8] = system: A 549: Lung Cancer cell with wild type p53; assay: Cytotoxicity against cancer cell lines: A 549; assay type: cell-based
Protocol: (§4) Cancer cell lines with functional or disrupted p53 expression were maintained in ATCC recommended culture media supplemented with 10% FBS, 100 μg/ml streptomycin and 50 units/ml penicillin, at 37° C. in a humidified incubator containing 5% CO2. For experiments, cells (10^6) were plated with 2% serum and then the required experiments were performed. […] Simultaneously, the effect of the compound was also investigated in one p53 mutated breast cancer cell line and in one cervical cancer cell line with disrupted p53 pathway.

[9] = system: HepG2: Liver Cancer cell with wild type p53; assay: Cytotoxicity against cancer cell lines: HepG2; assay type: cell-based
Protocol: as §4

[10] = system: MCF-7: Breast Cancer cell with p53 wild type; assay: Cytotoxicity against cancer cell lines: MCF-7; assay type: cell-based
Protocol: as §4

[11] = system: MDA MB 231: Breast Cancer cell with p53 mutation; assay: Cytotoxicity against cancer cell lines: MDA MB 231; assay type: cell-based
Protocol: as §4

[12] = system: HeLA: Cervical Cancer Cell with unstable P53; assay: Cytotoxicity against cancer cell lines: HeLA; assay type: cell-based
Protocol: as §4

[13] = system: MDA MB 231 (p53 mutated); assay: Cell cycle analysis of M2 treated p53 mutated breast cancer cell line (PI flowcytometry); assay type: cell-based; details: 12 hour exposure
Protocol: Cell cycle analyses were performed with the p53 mutated breast cancer cell line to explore deeper into the probable mechanism. […] For experiments, cells (10^6) were plated with 2% serum and then the required experiments were performed. Cells were harvested after 12 hour exposure with the compound at varying concentrations and cell cycle phase distribution of nuclear DNA was determined by flowcytometry using propidium iodide (PI) as DNA-binding fluorochrome.
Analyses of the cells in sub GO phase and S/G2/M are given as mean±Standard Deviation of five independent experiments.

[14] = system: Sarcoma 180 cells; assay: Cytotoxicity study against Sarcoma 180 cells in vitro; assay type: cell-based, murine; details: Sarcoma 180 (in vitro)
Protocol: Before entering into the in vivo experiments with solid transplantable tumour model of sarcoma 180, the drug's efficacy was tested against the same tumor cell in vitro.

[15] = system: S-180 tumor cells; assay: Comet assay in sarcoma tumor cells from treated mice (apoptosis); assay type: in vivo, Swiss albino mice; details: S-180 bearing mice, vs untreated sarcoma control
Protocol: Comet assay is a sensitive, reliable, and rapid method for DNA damage evaluation. The segmented DNA emigrates from the nucleus towards the anode under an electrical current to produce comets. About 400 μl of the cell suspension was mixed with 800 μl 1% low melting point agarose. Then 100 μl of the mixture was layered on slides precoated with a 1% normal melting point agarose and then covered with a cover slip. The slides were then placed in a refrigerator for 5 min. Then cover slips were carefully removed and the slides were left in a dark place except for the positive control slides. The positive control slides were treated with 200 μM H2O2 solution for 17 min at 4° C., while the negative control slides remained untreated. Then all the slides were immersed in cold lysis solution (2.5 M NaCl, 100 mM EDTA, 0.2 M NaOH, 10 mM Tris, 1% Triton X-100, pH=10), protected from light and refrigerated at 4° C. for 45 min. Slides were then left in freshly prepared electrophoresis solution (0.3 M NaOH, 1 mM EDTA, pH>13,) for 40 min. Electrophoresis was performed using the same solution at 300 mA, 25 V for 45 min. After electrophoresis the slides were neutralized gently with 0.4 M Tris buffer at pH 7.5 for 10 min and stained with 20 μg/ml ethidium bromide for 7 min. […] Comets were counted in four to five different fields of a section, and data are summarized in terms of percent comet. […]

[16] = Serum biochemical markers of toxicity (ALT, AST, ALP, creatinine); assay type: in vivo, Swiss albino mice; details: all M2 treated groups except the highest dose (40 μM)
Protocol: Alanine aminotransferase (ALT), aspartate aminotransferase (AST), alkaline phosphatase (ALP) and creatinine levels were measured from collected sera using kits (Sigma).

[17] = system: Nrf-2; assay: Western blot of Nrf-2 in liver; assay type: in vivo, Swiss albino mice; details: S-180 tumor bearers, compared to sarcoma control
Protocol: (§5) Cell lysates were obtained and equal amounts of protein from each sample were diluted with loading buffer, denatured, and separated by 10% sodium dodecyl sulfate-polyacrylamide gel electrophoresis (SDS-PAGE) followed by protein transfer to polyvinylidene fluoride membranes (PVDF). […] Proteins were detected by incubation with corresponding primary antibodies (anti p53, anti-p21, anti-Nrf-2, anti-ERK3 and anti-PCNA) antibodies followed by blotting with AP-conjugated secondary antibody. The blots were then exposed to NBT/BCIP substrate for detection. This analysis was performed three times.

[18] = system: PCNA; assay: Western blot of PCNA in bone marrow; assay type: in vivo, Swiss albino mice; details: all M2 treated groups, compared to sarcoma control
Protocol: as §5

[19] = system: PCNA; assay: Western blot of PCNA in tumor tissue; assay type: in vivo, Swiss albino mice; details: S-180 tumor tissue
Protocol: as §5

[20] = system: ERK; assay: Western blot of ERK in tumor tissue; assay type: in vivo, Swiss albino mice; details: S-180 tumor tissue, compared to sarcoma control and cyclophosphamide treated groups
Protocol: as §5

[21] = system: Ehrlich's ascites carcinoma (EAC); assay: Ehrlich's ascites carcinoma (EAC) tumor model: tumor volume and cell count; assay type: in vivo; details: EAC bearing mice, 35 μM, vs EAC control and cyclophosphamide treated
Excerpt: Ehrlich's ascites carcinoma (EAC) cells were maintained by serial intra-peritoneal passage of 10^5 cells per mice. EAC cells were collected from tumor-bearing mice at the exponential phase of growth, roughly 7 days after tumor transplant. The cells were drawn out aseptically with the help of a fine needle. The cells were washed in PBS and counted with the help of a Hemocytometer by the Trypan Blue dye exclusion test. The cells were suspended in PBS and inoculated into the next batch of mice.

[22] = system: human PBMC; assay: Cytotoxicity (cell viability) of M2 against human PBMC; assay type: cell-based; details: highest dose 30 μM
[23] = target: G-Quadruplex 5′-TAGGG(TTAGGG)3-3′; assay: Fluorescence emission titration with G-Quadruplex; details: read-out: equilibrium dissociation constant (KD); from change in fluorescence emission maxima of G-Quadruplex
Protocol: The emission spectra of a DNA duplex and G-Quadruplex sequence were recorded at room temperature using Hitachi spectrometer (F-700 FL spectrophotometer) with one cm path-length quartz cuvette. The emission spectrum was recorded from 300-500 nm with an excitation wavelength of 260 nm. Excitation and emission slits were set to 5 nm each. Emission spectra were recorded by titrating small molecules up to 50 μM concentration against 10 μM G-Quadruplex and duplex DNA.

[24] = S-180 tumor bearers, cyclophosphamide treatment

O=P1(N(CCCl)CCCl)NCCCO1 (stereo not shown) [cyclophosphamide, reference compound]
hypoploid cells (sub-G0 region) of tumor cells ([1]; S-180 bearing mice, cyclophosphamide treated group): 42.1%
bone marrow hypoploidy peak [2, 24]: 48.5%
bone marrow proliferative phases (S and G2/M combined) [2, 24]: 3%
hepatic LPO levels (oxidative stress) ([3]; liver of S-180 tumor bearers, vs sarcoma control): further enhanced
activity of hepatic anti-oxidant enzymes SOD, CAT and GST ([4]; liver of S-180 tumor bearers, vs normal and sarcoma control): depression
bone marrow cell count / bone marrow suppression [5]: significant depression
effect on bone marrow (cell count) [6]: induces myelosuppression

CN(CCC#N)c1ccc(C=NCCCN=Cc2ccc(N(C)CCC#N)cc2)cc1 [M2, Bis(3-[4-({[3-({4-[(2 cyanoethyl)(methyl)amino]benzylidene}amino)propyl]imino}methyl)(methyl)anilino]propanenitrile)]
effect on the viability of human PBMC ([7]; doses 0.1 to 25 μM): negligible effect
PBMC that could not survive the treatment ([7]; human PBMC, 35 μM, 12 hours): ~25%
Total Cell Count (% survival) ([7]; human PBMC, dose 1 μM): 90.67 ± 2.16%
Total Cell Count (% survival) ([7]; human PBMC, dose 5 μM): 89.50 ± 1.05%
Total Cell Count (% survival) ([7]; human PBMC, dose 10 μM): 88.67 ± 1.75%
Total Cell Count (% survival) ([7]; human PBMC, dose 15 μM): 88.83 ± 1.47%
Total Cell Count (% survival) ([7]; human PBMC, dose 20 μM): 87.33 ± 1.97%
Total Cell Count (% survival) ([7]; human PBMC, dose 25 μM): 85.17 ± 1.94%
Total Cell Count (% survival) ([7]; human PBMC, dose 30 μM): 77.67 ± 3.44%
Death Percentages ([8]; A 549, dose 15 μM): 26 ± 4.32%
Death Percentages ([8]; A 549, dose 20 μM): 34.25 ± 4.35%
Death Percentages ([8]; A 549, dose 25 μM): 47.75 ± 6.34%
Death Percentages ([9]; HepG2, dose 15 μM): 20.75 ± 5.25%
Death Percentages ([9]; HepG2, dose 20 μM): 38.5 ± 6.25%,
Death Percentages ([9]; HepG2, dose 25 μM): 55.86 ± 7.12%
Death Percentages ([10]; MCF-7, dose 15 μM): 23.00 ± 7.26%
Death Percentages ([10]; MCF-7, dose 20 μM): 32.5 ± 2.89%
Death Percentages ([10]; MCF-7, dose 25 μM): 41.5 ± 2.65%
Death Percentages ([11]; MDA MB 231, dose 15 μM): 36.50 ± 5.00%
Death Percentages ([11]; MDA MB 231, dose 20 μM): 47.00 ± 6.78%
Death Percentages ([11]; MDA MB 231, dose 25 μM): 60% and 60.25 ± 9.03%
Death Percentages ([12]; dose 15 μM): 20.5 ± 4.20%
Death Percentages ([12]; dose 20 μM): 37.75 ± 5.44%
Death Percentages ([12]; dose 25 μM): 46.75 ± 5.38%
% S/G2/M as from cell cycle analysis ([13]; MDA MB 231, dose 15 μM): 10.76 ± 1.38%
% Sub G0 as from cell cycle analysis ([13]; MDA MB 231, dose 15 μM): 16.08 ± 2.28%
% S/G2/M as from cell cycle analysis ([13]; MDA MB 231, dose 20 μM): 12.09 ± 1.77%
% Sub G0 as from cell cycle analysis ([13]; MDA MB 231, dose 20 μM): 27.38 ± 2.28%
% S/G2/M as from cell cycle analysis ([13]; MDA MB 231, dose 25 μM): 16.94 ± 4.82%
% Sub G0 as from cell cycle analysis ([13]; MDA MB 231, dose 25 μM): 30.50 ± 4.96%
Death Percentages ([14]; dose 15 μM): 36.67 ± 6.12%
Death Percentages ([14]; dose 20 μM): 50.33 ± 5.03%
Death Percentages ([14]; dose 25 μM): 57.33 ± 4.16%
hypoploid cells (sub-G0 region) of tumor cells ([1]; mouse, in vivo): 39.94% and 69.2% and 41.5%
proliferative stage (sum of S and G2/M) of tumor cells ([1]; mouse, in vivo): distinctive depression
bone marrow hypoploidy peak ([2]; mouse, in vivo): 5.4%
bone marrow proliferative phase ([2]; mouse, in vivo): did not decrease
DNA damage in tumor cells (percentage of comet cells per field) [15]: significant DNA damage
Serum ALT, AST, ALP values and creatinine levels [16]: within the normal range
hepatic LPO levels (oxidative stress) ([3]; mouse, in vivo): significant decrease
activity of hepatic anti-oxidant enzymes SOD, CAT and GST ([4]; mouse, in vivo): increase
bone marrow cell count / bone marrow suppression [5]: did not cause bone marrow suppression
Nrf-2 expression in the liver [17]: increased
PCNA expression in bone marrow [18]: significant increase
PCNA expression in tumor tissues [19]: decrease
expression of ERK in tumor tissues [20]: significantly reduce
tumor cell count [21]: significant reduction
tumor volume [21]: significant reduction
effect on bone marrow (cell count) [6]: protective effect
cytotoxic effect on human PBMC [22]: cytotoxic effect
Kd [23]: 31 ± 1.2 µM
